Measured values taken from patent US20250092036A1, “COMPOUNDS AND COMPOSITIONS FOR MODULATING THE ACTIVITY OF ERK” (Novartis AG, priority 2023, published 2025).
Where two headings read alike, the source gives them in different places.

Columns and labels:
[1] = target: T1, ERK2[2-360(p-T185/p-Y187)]-Avi (Homo sapiens, UniProt P28482); assay: Biochemical assay (HTRF competition assay); format: binding; settings: HTRF competition with Example 15 probe, overnight at RT; read-out: Biochemical qualified AC50
T1 construct: 400 pM ERK2[2-360(p-T185/p-Y187)]-Avi was added to the plate
Procedure: The competition assays were performed at RT in a 384-well white polystyrene, flat bottom plate (Greiner #784075) using a final reaction volume of 15 μL and the following assay buffer conditions: 50 mM MOPS, pH 7.2, 10 mM MgCl2, 0.5 mM TCEP, 0.01% Triton-X-100. 75 nL of a 10 mM compound solution in DMSO or 100% DMSO (12 point titration, final concentration: 50 μM-300 pM; final DMSO: 0.5%) was added using an acoustic liquid handler (Echo, Beckman Coulter) to wells containing 7.5 μL of 1-(6-((R)-3-(1-(5-chloro-1-((tetrahydro-2H-pyran-4-yl)methyl)-1H-indole-3-carbonyl)-4-(4-fluorophenyl)piperidine-4-carboxamido)pyrrolidin-1-yl)-6-oxohexyl)-3,3-dimethyl-5-sulfo-2-((1E,3E)-5-((E)-1,3,3-trimethyl-5-sulfoindolin-2-ylidene)penta-1,3-dien-1-yl)-3H-indol-1-ium (Example 15); 7.5 μL 400 pM SA-Tb (Cisbio, 610SATLB) and 400 pM ERK2[2-360(p-T185/p-Y187)]-Avi was added to the plate and incubated overnight at RT. HTRF signal was measured using a microplate reader (PheraStar, BMG Labtech) with excitation and emission wavelengths of […], respectively. The inhibitor dose-response curves were analyzed from the HTRF ratio signal using normalized IC50 regression curve fitting with control-based normalization.

[2] = target: T2, nanobit-large-bit-ERK2 and nanobit-small-bit-PEA15 in WM793 cells (Homo sapiens, UniProt P28482); assay: NanoBiT assay; format: cell-based; settings: WM793 nanobit stable cell line, overnight incubation; read-out: NanoBiT qualified absolute AC50
T2 construct: expressed in transfected cells
Procedure: (§1) Cancer cell media was prepared by adding 500 mL of RPMI (ThermoFisher cat ##22400-089) and 10% Fetal Bovine Serum (Gibco) for WM793 cells (ATCC Cat #CRL-2806, RRID: CVCL 8787) and F12K (Thermo Fisher cat #21127-022, 500 mL; or 21127-030, 10×500 mL)+10% FBS for PC3 (ATCC CRL-1435) cells. The entire media with supplements was filter sterilized through a 0.4 μm bottle top filter system. Cancer cell lines were detached from traditional cell culture flasks by washing three times with 1×PBS and adding an appropriate amount of 0.25% TrypLE™ Express Enzyme (1×), no phenol red (ThermoFisher cat #12604013) to create a thin layer over the cells. Trypsin was neutralized with media containing serum and proceeded to count the cells.
A nanobit stable cell line was generated using WM793 cells with nanobit-large-bit-ERK2 and nanobit-small-bit-PEA15. […] In a biological safety cabinet, cells were seeded using a sterilized small stainless steel tipped cassette on a Multi-drop Combi. Between different cell lines, the tubing of the cassette was flushed with 1× sterile PBS for 10 s. Alternatively, cells can be seeded using a Multi-flow located within a Hepa filtered robotics room using either a sterilized small sapphire jewel tipped cassette and the peristatic pump, or the attached syringe pump, depending on volume of plates per cell line needed. The plates were placed in an incubator set at 37° C., with 5% CO2 and 95% relative humidity. A 10-point, 3-fold serial dilution of compounds was prepared in 100% DMSO on a liquid handling robot with a 10 mM top concentration. 90 nl/well was dispensed in three assay plates/1 compound source plate, with the highest concentration at 30 μM. After addition of compound was complete, the plates were placed into an incubator at 37° C., with 5% CO2 and 95% relative humidity for overnight. Luminescence was captured on a plate luminometer such as an Envision or View Lux to measure Day 0 time point both select cell lines. LUM plus, gain 3500, 0.1 s and focal height 12.5 [mm] on PheraStar reader. The raw data was extracted from the instrument and normalized all fields containing test compounds to the average of all wells containing DMSO alone as neutral control. From this value, the percent growth inhibition was calculated for each compound. Dose response curves and inhibitory IC50s were generated by graphing the normalized data values against the compound concentration using either a program such as GraphPad™ or Excel Fit.

WM793 cells = assay: Cell proliferation assay (CellTiter-Glo); format: cell-based; settings: 3 d, read-out: Cell proliferation qualified AC50
Procedure: as §1
After counting the cells, the concentration of the cell solution was adjusted to seed a total of 750 cells per well in 50 μL of complete media into 384-well tissue culture treated plates. In a biological safety cabinet, cells were seeded using a sterilized small stainless steel tipped cassette on a Multi-drop Combi. Between different cell lines, the tubing of the cassette was flushed with 1× sterile PBS for 10 seconds. Alternatively, cells can be seeded using a Multi-flow located within a Hepa filtered robotics room using either a sterilized small sapphire jewel tipped cassette and the peristatic pump, or the attached syringe pump, depending on volume of plates per cell line needed. The plates were placed in an incubator set at 37° C., with 5% CO2 and 95% relative humidity. A 10-point, 3-fold serial dilutions of compounds in 100% DMSO was prepared on a liquid handling robot with a 10 mM top concentration. 100 nL/well in three assay plates/1 compound was dispensed to source plate, with the highest concentration at 20 μM. After addition of compound was complete, plates were placed into an incubator at 37° C., with 5% CO2 and 95% relative humidity for 3 d. An adequate volume of CellTiter-Glo® (Promega #G7571) detection reagent was pre-warmed to RT or in a 37° C. H2O bath. 25 μL of the reagent was added to each well using either a Multi-drop Combi or MultiFlo and incubate at RT for at least 15 min. Luminesce was captured on a plate luminometer such as an Envision or View Lux to measure Day 0 time point both select cell lines. LUM plus, gain 3500, 0.1 s and focal height 12.5 mm on PheraStar reader. At Day 3, an adequate volume of CellTiter-Glo® detection reagent was pre-warmed at RT or in a 37° C. H2O bath. A total of 25 μL of the reagent was added to each well using either a Multi-drop Combi or MultiFlo and incubate at RT for at least 15 min. Luminesce was captured on a plate luminometer such as an Envision or View Lux to measure Day 3 time point both select cell lines. LUM plus, gain 3500, 0.1 s and focal height 12.5 mm on PheraStar reader. Raw data was extracted from the instrument and all fields containing test compounds were normalized to the average of all wells containing DMSO alone from Day 3 as neutral control and Day 0 starting numbers. From this value, percent growth inhibition of each compound was calculated. Dose response curves and growth inhibitory IC50s were generated by graphing the normalized data values against the compound concentration using a program such as GraphPad™ or Excel Fit.

T2 sequence (P28482 whole entry): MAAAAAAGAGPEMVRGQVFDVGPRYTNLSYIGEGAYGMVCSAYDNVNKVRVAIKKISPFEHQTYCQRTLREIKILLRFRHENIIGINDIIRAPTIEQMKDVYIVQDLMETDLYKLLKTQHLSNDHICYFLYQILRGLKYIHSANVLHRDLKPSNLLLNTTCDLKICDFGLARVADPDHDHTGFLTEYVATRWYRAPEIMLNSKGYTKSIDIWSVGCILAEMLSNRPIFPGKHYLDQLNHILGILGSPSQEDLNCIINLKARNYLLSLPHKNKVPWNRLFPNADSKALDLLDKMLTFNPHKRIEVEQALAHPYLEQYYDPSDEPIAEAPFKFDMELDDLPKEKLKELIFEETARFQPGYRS
T1 sequence (P28482 2-360 limits assumed): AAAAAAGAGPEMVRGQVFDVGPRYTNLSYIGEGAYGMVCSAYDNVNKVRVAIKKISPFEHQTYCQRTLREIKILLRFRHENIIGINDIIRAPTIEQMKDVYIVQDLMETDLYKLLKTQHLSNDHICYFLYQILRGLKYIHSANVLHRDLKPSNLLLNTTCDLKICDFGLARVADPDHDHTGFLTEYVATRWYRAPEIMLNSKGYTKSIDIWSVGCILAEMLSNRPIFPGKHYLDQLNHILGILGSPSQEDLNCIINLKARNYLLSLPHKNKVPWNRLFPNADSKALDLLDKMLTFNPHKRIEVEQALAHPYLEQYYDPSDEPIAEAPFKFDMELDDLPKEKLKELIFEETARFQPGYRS

Row | SMILES | AC50 [1] [nM] | AC50 [2] [nM] | AC50 (WM793 cells; Homo sapiens, WM793, 72 h) [nM] | AC50 (WM793 cells) [nM]
1 | CCc1c(C[C@H]2CC[C@H](OC(C)C)CC2)c2ccc(F)cc2n1C(=O)N1CCC(C(=O)N[C@H]2CC[C@H](C(=O)O)C[C@@H]2C)(c2ccc(F)cc2)CC1 [Example 2, (1S,3S,4S)-4-(1-(2-ethyl-6-fluoro-3-(((1r,4S)-4-isopropoxycyclohexyl)methyl)-1H-indole-1-carbonyl)-4-(4-fluorophenyl)piperidine-4-carboxamido)-3-methylcyclohexane-1-carboxylic acid] | < 0.28 | 190 |  | 110
2 | COCCc1c(C[C@H]2CC[C@H](OC(C)C)CC2)c2ccc(F)cc2n1C(=O)N1CCC(C(=O)N[C@H]2CC[C@H](C(=O)O)C[C@@H]2C)(c2ccc(F)cc2)CC1 [Example 3, (1S,3S,4S)-4-(1-(6-fluoro-3-(((1r,4S)-4-isopropoxycyclohexyl)methyl)-2-(2-methoxyethyl)-1H-indole-1-carbonyl)-4-(4-fluorophenyl)piperidine-4-carboxamido)-3-methylcyclohexane-1-carboxylic acid] | 0.5 | 46 | 60 | 
3 | CCc1c(C[C@H]2CC[C@H](OC3CCOCC3)CC2)c2ccc(F)cc2n1C(=O)N1CC[C@@](C(=O)N[C@H]2CC[C@H](C(=O)O)C[C@@H]2C)(c2ccc(F)cc2)C[C@@H]1C [Example 6, (1S,3S,4S)-4-((2S,4S)-1-(2-ethyl-6-fluoro-3-(((1r,4S)-4-((tetrahydro-2H-pyran-4-yl)oxy)cyclohexyl)methyl)-1H-indole-1-carbonyl)-4-(4-fluorophenyl)-2-methylpiperidine-4-carboxamido)-3-methylcyclohexane-1-carboxylic acid] | 0.98 | 72 |  | 23
4 | CCO[C@H]1CC[C@H](Cc2c(C)n(C(=O)N3CCC(C(=O)N[C@H]4CC[C@H](C(=O)O)C[C@@H]4C)(c4ccc(F)cc4)CC3)c3cc(F)ccc23)CC1 [Example 7, (1S,3S,4S)-4-(1-(3-(((1r,4S)-4-ethoxycyclohexyl)methyl)-6-fluoro-2-methyl-1H-indole-1-carbonyl)-4-(4-fluorophenyl)piperidine-4-carboxamido)-3-methyl cyclohexane-1-carboxylic acid] | 0.33 | 80 | 96 | 
5 | Cc1c(C[C@H]2CC[C@H](OC3CCOCC3)CC2)c2ccc(F)cc2n1C(=O)N1CC[C@@](C(=O)N[C@H]2CC[C@H](C(=O)O)C[C@@H]2C)(c2ccc(F)cc2)C[C@@H]1C [Example 9, (1S,3S,4S)-4-((2S,4S)-1-(6-fluoro-2-methyl-3-(((1r,4S)-4-((tetrahydro-2H-pyran-4-yl)oxy)cyclohexyl)methyl)-1H-indole-1-carbonyl)-4-(4-fluorophenyl)-2-methylpiperidine-4-carboxamido)-3-methylcyclohexane-1-carboxylic acid] | 0.44 | 26 | 5.9 | 
6 | CN1CC[C@@H](NC(=O)C2(c3ccc(F)cc3)CCN(C(=O)c3cn(CC4CCOCC4)c4ccc(Br)cc34)CC2)C1 [Example 11, (R)-1-(5-bromo-1-((tetrahydro-2H-pyran-4-yl)methyl)-1H-indole-3-carbonyl)-4-(4-fluorophenyl)-N-(1-methylpyrrolidin-3-yl)piperidine-4-carboxamide] | 18 | 4900 | 2700 | 

Now from value to molecule, other results behind:

Row | AC50 [1] [nM] | AC50 [2] [nM] | SMILES | AC50 (WM793 cells; Homo sapiens, WM793, 72 h) [nM] | AC50 (WM793 cells) [nM]
7 | < 0.28 | 19 | CCc1c(C[C@H]2CC[C@H](OC3CCOCC3)CC2)c2ccc(F)cc2n1C(=O)N1CCC(C(=O)N[C@H]2CC[C@H](C(=O)O)CC2(C)C)(c2ccc(F)cc2)CC1 [Example 1e] | 70 | 
8 | < 0.28 | 140 | COCCc1c(C[C@H]2CC[C@H](OC(C)C)CC2)c2cc(F)c(F)cc2n1C(=O)N1CCC(C(=O)N[C@H]2CC[C@H](C(=O)O)C[C@@H]2C)(c2ccc(F)cc2)CC1 [Example 1f] | 52 | 
9 | < 0.28 | 210 | COCCc1c(C[C@H]2CC[C@H](OC(C)C)CC2)c2ccc(Cl)cc2n1C(=O)N1CCC(C(=O)N[C@H]2CC[C@H](C(=O)O)C[C@@H]2C)(c2ccc(F)cc2)CC1 [Example 1g] | 93 | 
10 | < 0.28 | 55 | CCc1c(CC2CCOCC2)c2ccc(F)cc2n1C(=O)N1CCC(C(=O)N[C@H]2CC[C@H](C(=O)O)C[C@@H]2C)(c2ccc(F)cc2)CC1 [Example 1h] | 16 | 
11 | < 0.28 | 31 | Cc1c(CC2CCC(OC(C)C)CO2)c2ccc(F)cc2n1C(=O)N1CC[C@@](C(=O)N[C@H]2CC[C@H](C(=O)O)C[C@@H]2C)(c2ccc(F)cc2)C[C@@H]1C (stereo partly drawn) [Example 1i] | 15 | 
12 | < 0.28 | 30 | CCc1c(C[C@H]2CC[C@H](OC3CCOCC3)CC2)c2ccc(F)cc2n1C(=O)N1CC[C@@](C(=O)N[C@H]2CC[C@H](C(=O)O)C[C@@H]2C)(c2ccccc2)C[C@@H]1C [Example 1j] | 29 | 
13 | 0.48 | 250 | CCc1c(C[C@H]2CC[C@H](OC3CCOCC3)CC2)c2ccc(F)cc2n1C(=O)N1CCC(C(=O)N[C@H]2CC[C@H](C(=O)O)C[C@@H]2C)(c2ccc(Cl)nc2)CC1 [Example 1k] | 33 | 
14 | < 0.28 | 270 | Cc1c(C[C@H]2CC[C@H](OC(C)C)CC2)c2ccc(F)cc2n1C(=O)N1CC[C@@](C(=O)N[C@H]2CC[C@H](C(=O)O)C[C@@H]2C)(c2ccc(F)cc2)C[C@@H]1C [Example 1l] | 18 | 
15 | 0.32 | 260 | C[C@H]1C[C@@H](C(=O)O)CC[C@@H]1NC(=O)[C@@]1(c2ccc(F)cc2)CCN(C(=O)N2CCc3ccc(F)cc32)[C@@H](C)C1 [Example 4b] | 220 | 
